From paper PMC8494430, “Development of a fluorogenic ADAMTS-7 substrate” (Journal of Enzyme Inhibition and Medicinal Chemistry, 2021)

Legend:
ADAMTS-8 = molecular target: T1, ADAMTS-8 (Homo sapiens, UniProt Q9UP79); assay: Cleavage of ATS7FP7 by ADAMTS-8; type: biochemical; conditions: ADAMTS-8 10 nM, ATS7FP7 40 μM
T1 construct: made in house; host or cells: HEK293T
T1 sequence (Q9UP79 214-889): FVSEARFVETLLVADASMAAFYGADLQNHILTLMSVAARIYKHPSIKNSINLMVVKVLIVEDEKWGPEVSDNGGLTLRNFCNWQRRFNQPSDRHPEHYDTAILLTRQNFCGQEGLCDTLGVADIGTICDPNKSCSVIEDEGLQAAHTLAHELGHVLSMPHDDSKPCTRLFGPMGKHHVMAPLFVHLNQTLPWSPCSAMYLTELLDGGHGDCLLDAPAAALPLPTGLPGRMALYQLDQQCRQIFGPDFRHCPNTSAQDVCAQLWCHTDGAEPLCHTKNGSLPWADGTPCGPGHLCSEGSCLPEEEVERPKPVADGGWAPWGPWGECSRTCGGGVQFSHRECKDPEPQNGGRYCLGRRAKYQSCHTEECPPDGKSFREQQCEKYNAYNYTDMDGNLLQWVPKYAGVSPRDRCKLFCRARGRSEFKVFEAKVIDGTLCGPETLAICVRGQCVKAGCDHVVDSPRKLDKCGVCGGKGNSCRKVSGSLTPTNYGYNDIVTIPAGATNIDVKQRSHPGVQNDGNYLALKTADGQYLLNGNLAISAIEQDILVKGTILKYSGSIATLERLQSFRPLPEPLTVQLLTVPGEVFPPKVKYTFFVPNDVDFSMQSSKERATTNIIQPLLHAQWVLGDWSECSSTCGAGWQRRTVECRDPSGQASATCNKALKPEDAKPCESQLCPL
Method: All enzyme assays were conducted in TNC-B buffer (50 mM Tris- HCl, pH 7.5, 150 mM NaCl, 10 mM CaCl2, and 0.02% NaN3) at 37 °C in 384 well plates (Cat. No: 784900, Greiner Bio-One, Austria). To avoid the formation of inhibitor or peptide aggregates, the detergent Brij-35 (0.05%) was added to TNC-B[13]. For inhibition studies, stock solutions of chemical compounds were prepared in dimethyl sulfoxide (DMSO) (10 mM). These were further diluted at different concentrations in TNC-B and incubated with ADAMTS-1, ADAMTS-4, ADAMTS-5, ADAMTS-7 or ADAMTS-8 (10 nM) for 1 h at 37 °C. Blank samples were prepared using buffer only and the rate of cleavage for blank reactions was subtracted from the rates measured in the presence of enzyme. Upon addition of the indicated ADAMTS-7 FRET substrates (40 µM), the fluorescence was measured immediately using a FLUOstar Omega microplate reader (BMG Labtech, Germany) with an excitation filter wavelength of 485 nm and an emission filter wavelength of 520 nm.
Supplementary Figure 6: Cleavage of ATS7FP7 by members of the ADAMTS family. A) ATS7FP7 (40 μM) was incubated either with ADAMTS-1, -4, -5, -7, or -8 (10 nM). Fluorescence was detected (λex = 485 nm, λem = 520 nm) for 8 h at 37°C and reported as relative fluorescence units (RFU). The data are presented as average ± SEM (n=3) and were fitted with a linear regression. […]

[1] = Appearance of solution upon dilution of peptide in assay buffer (solubility); type: physicochemical; conditions: 10 mM DMSO stock diluted in assay buffer
Method: The cleavage sites ^193Arg↓Ala^194 and ^195Glu↓Ala^196 were chosen to design the FRET substrate ATS7FP0 (Table 1). This peptide covers residues Ala^188-Ala^198 in LTBP4S and contains a FAM/TAMRA fluorophore/quencher pair. The quencher is covalently linked to the ε amino group of an extra C-terminal lysine residue. Stock solutions were routinely prepared at 10 mM in DMSO and stored at −80 °C. […] This was most likely due to the high content in hydrophobic amino acids of this peptide, which added to the hydrophobicity of the fluorophore/quencher pair. Nevertheless, ATS7FP0 generated fluorescence upon cleavage by ADAMTS-7 (Figure 2(A)). With the aim to improve both solubility and cleavage rate by ADAMTS-7, seven additional peptides were designed using the sequence of ATS7FP0 as a starting point. The N-terminal alanine residue present in ATS7FP0 was removed to generate peptide ATS7FP7 with a reduced aliphatic index (Table 1). […] To assess the effect of a P4′ proline residue on the cleavage rate, peptide ATS7FP7 was modified to generate ATS7FP8. […] Since we also determined that ADAMTS-7 prefers arginine in P1 (Figure 1(D)), we mutated one alanine residue in the parental sequence into arginine with the aim to improve both cleavage rate and hydrophilicity, thus generating peptide ATS7FP3. […]

## Glu-Ala-Ala-Ala-Arg↓Ala-Glu↓Ala-Ala-Ala-Lys [ATS7FP7]
ADAMTS-8
  cleavage by ADAMTS-8: neither ADAMTS-1 nor ADAMTS-8 were able to cleave ATS7FP7
[1]
  appearance of solution upon dilution in the assay buffer (solubility): homogeneous
